Source: US4362743A, “Antibacterial monic acid esters” (Beecham Group Limited, priority 1980, dated 1982)
Converted amounts (≈) assume the structure as drawn. Like-named read-outs stand apart in the source and are kept apart here.

Columns and labels:
[1] = system: M. suipneumoniae J2206/183b; assay: Anti-mycoplasmal activity in vitro MIC; assay type: cell-based; details: Mesomycoplasma hyopneumoniae, J2206/183B, 144 h
[2] = system: M. suipneumoniae ATCC 25095; assay: Anti-mycoplasmal activity in vitro MIC; assay type: cell-based; details: Mesomycoplasma hyopneumoniae, ATCC25095, 144 h
[3] = system: M. bovigenitalium ATCC 14173; assay: Anti-mycoplasmal activity in vitro MIC; assay type: cell-based; details: 144 h
[4] = system: M. pneumoniae ATCC 15492; assay: Anti-mycoplasmal activity in vitro MIC; assay type: cell-based; details: Mycoplasmoides pneumoniae, ATCC15492, 144 h; M. pneumoniae ATCC 15492; Friis broth, 0.9% agarose, 6 days 37° C.; read-out: M.I.C.
[5] = system: Bord. brochiasetpica B09; assay: Veterinary bacteria MIC; assay type: cell-based; details: Diagnostic Sensitivity Test Agar, 18 hours 37° C.
Description: (§1) The values were determined using a two fold serial dilutions in Diagnostic Sensitivity Test Agar with an inoculum of 10^4 organisms and incubation for 18 hours at 37° C.

[6] = system: Bord. bronchiseptica B08; assay: Veterinary bacteria MIC; assay type: cell-based; details: Bordetella bronchiseptica; Bord. bronchiseptica B08; Diagnostic Sensitivity Test Agar, 18 hours 37° C.; read-out: M.I.C.
Description: as §1

[7] = system: Corynebacterium pyogenes CY1; assay: Veterinary bacteria MIC; assay type: cell-based; details: Trueperella pyogenes; Corynebacterium pyogenes CY1; Diagnostic Sensitivity Test Agar, 18 hours 37° C.; read-out: M.I.C.
Description: as §1

[8] = system: E. coli El; assay: Veterinary bacteria MIC; assay type: cell-based; details: Escherichia coli; E. coli El; Diagnostic Sensitivity Test Agar, 18 hours 37° C.; read-out: M.I.C.
Description: as §1

[9] = system: E. coli NCTC 10418; assay: Veterinary bacteria MIC; assay type: cell-based; details: Escherichia coli, NCTC10418; E. coli NCTC 10418; Diagnostic Sensitivity Test Agar, 18 hours 37° C.; read-out: M.I.C.
Description: as §1

[10] = system: Erysipelothrix rhusiopathiae NCTC 8163; assay: Veterinary bacteria MIC; assay type: cell-based; details: NCTC8163; Erysipelothrix rhusiopathiae NCTC 8163; Diagnostic Sensitivity Test Agar, 18 hours 37° C.; read-out: M.I.C.
Description: as §1

[11] = system: Past. haemolytica PA5; assay: Veterinary bacteria MIC; assay type: cell-based; details: Mannheimia haemolytica; Past. haemolytica PA5; Diagnostic Sensitivity Test Agar, 18 hours 37° C.; read-out: M.I.C.
Description: as §1

[12] = system: Past. multocida PA1; assay: Veterinary bacteria MIC; assay type: cell-based; details: Pasteurella multocida, Diagnostic Sensitivity Test Agar, 18 hours 37° C.
Description: as §1

[13] = system: Past. multocida PA2; assay: Veterinary bacteria MIC; assay type: cell-based; details: Pasteurella multocida
Description: as §1

[14] = system: S. dublin S7; assay: Veterinary bacteria MIC; assay type: cell-based; details: Salmonella enterica; S. dublin S7; Diagnostic Sensitivity Test Agar, 18 hours 37° C.; read-out: M.I.C.
Description: as §1

[15] = system: S. typhimurium S18; assay: Veterinary bacteria MIC; assay type: cell-based; details: Salmonella enterica; S. typhimurium S18; Diagnostic Sensitivity Test Agar, 18 hours 37° C.; read-out: M.I.C.
Description: as §1

[16] = system: Staph. aureus 152 (pen. sens); assay: Veterinary bacteria MIC; assay type: cell-based; details: Staphylococcus aureus, Diagnostic Sensitivity Test Agar, 18 hours 37° C.
Description: as §1

[17] = system: Staph. aureus B4 (pen. resistant); assay: Veterinary bacteria MIC; assay type: cell-based; details: Staphylococcus aureus, Diagnostic Sensitivity Test Agar, 18 hours 37° C.
Description: as §1

[18] = system: Staph. aureus Oxford; assay: Veterinary bacteria MIC; assay type: cell-based; details: Staphylococcus aureus, Diagnostic Sensitivity Test Agar, 18 hours 37° C.
Description: as §1

[19] = system: Strep. agalactiae SPA1; assay: Veterinary bacteria MIC; assay type: cell-based; details: Streptococcus agalactiae, Diagnostic Sensitivity Test Agar, 18 hours 37° C.
Description: as §1

[20] = system: Strep. dysgalactiae SPD1; assay: Veterinary bacteria MIC; assay type: cell-based; details: Streptococcus dysgalactiae, Diagnostic Sensitivity Test Agar, 18 hours 37° C.
Description: as §1

[21] = system: Strep. suis (Group D) SPS11; assay: Veterinary bacteria MIC; assay type: cell-based; details: Streptococcus suis; Strep. suis (Group D) SPS11; Diagnostic Sensitivity Test Agar, 18 hours 37° C.; read-out: M.I.C.
Description: as §1

[22] = system: Strep. uberis SPU1; assay: Veterinary bacteria MIC; assay type: cell-based; details: Streptococcus uberis, Diagnostic Sensitivity Test Agar, 18 hours 37° C.
Description: as §1

[23] = system: Haemophilus influenzae Q1; assay: Human bacteria MIC; assay type: cell-based; details: Haemophilus influenzae Q1; nutrient agar, 5% chocolated horse blood, 18 hours 37° C.; read-out: M.I.C.
Description: (§2) The values were determined by serial dilutions in nutrient agar with 5% chocolated horse blood after incubations for 18 hours at 37° C.

[24] = system: K. aerogenes A; assay: Human bacteria MIC; assay type: cell-based; details: Klebsiella aerogenes; K. aerogenes A; nutrient agar, 5% chocolated horse blood, 18 hours 37° C.; read-out: M.I.C.
Description: as §2

[25] = system: Neisseria catarralis 1502; assay: Human bacteria MIC; assay type: cell-based; details: Neisseria catarralis 1502; nutrient agar, 5% chocolated horse blood, 18 hours 37° C.; read-out: M.I.C.
Description: as §2

[26] = system: P. mirabilis 889; assay: Human bacteria MIC; assay type: cell-based; details: Proteus mirabilis; P. mirabilis 889; nutrient agar, 5% chocolated horse blood, 18 hours 37° C.; read-out: M.I.C.
Description: as §2

[27] = system: Sarcina lutea 8340; assay: Human bacteria MIC; assay type: cell-based; details: Micrococcus luteus; Sarcina lutea 8340; nutrient agar, 5% chocolated horse blood, 18 hours 37° C.; read-out: M.I.C.
Description: as §2

[28] = system: Strep Group B 2788; assay: Human bacteria MIC; assay type: cell-based; details: Strep Group B 2788; nutrient agar, 5% chocolated horse blood, 18 hours 37° C.; read-out: M.I.C.
Description: as §2

[29] = system: Strep. faecalis I; assay: Human bacteria MIC; assay type: cell-based; details: Enterococcus faecalis, nutrient agar, 5% chocolated horse blood, 18 hours 37° C.
Description: as §2

[30] = Serum binding by ultrafiltration; assay type: in vitro ADME; details: pig, porcine serum, 8 mcg/ml, read-out: % bound to pig serum (converted)
Description: Serum binding was assessed by ultrafiltration of porcine serum containing compounds at 8 mcg/ml, and through an Amicon CF50A ultrafiltration cone. Separation of ultrafiltrate was achieved by centrifugation. Unbound concentrations of compound were measured in the ultrafiltrate by microbiological assay (B. subtilis ATCC 6633) against standards prepared in saline.

[31] = system: Haemophilus influenzae Wy21; assay: Human bacteria MIC; assay type: cell-based; details: Haemophilus influenzae Wy21; nutrient agar, 5% chocolated horse blood, 18 hours 37° C.; read-out: M.I.C.
Description: as §2

Compound: C/C(=C\C(=O)OCCCC(=NO)c1cccs1)C[C@@H]1OC[C@H](C[C@@H]2O[C@H]2[C@@H](C)[C@H](C)O)[C@@H](O)[C@H]1O [Example 4, 4-Hydroxyimino-4-(2-thienyl)butyl monate A]
- MIC [1]: 0.5 µg/mL (≈ 0.977 µM)
- MIC [2]: 0.5 µg/mL (≈ 0.977 µM)
- MIC [3]: 0.05 µg/mL (≈ 0.0977 µM)
- MIC [4]: 2.5 µg/mL (≈ 4.89 µM)
- MIC [5]: 5 µg/mL (≈ 9.77 µM)
- MIC [6]: > 80 µg/mL
- MIC [7]: > 80 µg/mL
- MIC [8]: > 80 µg/mL
- MIC [9]: > 80 µg/mL
- MIC [10]: 20 µg/mL (≈ 39.1 µM)
- MIC [11]: 20 µg/mL (≈ 39.1 µM)
- MIC [12]: 2.5 µg/mL (≈ 4.89 µM)
- MIC ([13]; PA2, 18 h): 0.156 µg/mL (≈ 0.305 µM)
- MIC [14]: > 80 µg/mL
- MIC [15]: > 80 µg/mL
- MIC [16]: 0.312 µg/mL (≈ 0.61 µM)
- MIC [17]: 0.625 µg/mL (≈ 1.22 µM)
- MIC [18]: 0.312 µg/mL (≈ 0.61 µM)
- MIC [19]: 0.625 µg/mL (≈ 1.22 µM)
- MIC [20]: 0.625 µg/mL (≈ 1.22 µM)
- MIC [21]: 10 µg/mL (≈ 19.5 µM)
- MIC [22]: 0.312 µg/mL (≈ 0.61 µM)
- MIC [23]: 0.5 µg/mL (≈ 0.977 µM)
- MIC [24]: > 100 µg/mL
- MIC [25]: 0.5 µg/mL (≈ 0.977 µM)
- MIC [26]: > 100 µg/mL
- MIC [27]: > 100 µg/mL
- MIC [28]: 2.5 µg/mL (≈ 4.89 µM)
- MIC [29]: 100 µg/mL (≈ 195 µM)
- fraction unbound [30]: < 0.039

Compound: C/C(=C\C(=O)OCCCC(=NNC(N)=O)c1ccccc1)C[C@@H]1OC[C@H](C[C@@H]2O[C@H]2[C@@H](C)[C@H](C)O)[C@@H](O)[C@H]1O [Example 2, 4-Phenyl-4-semicarbazonobutyl monate A]
- MIC [1]: 0.5 µg/mL (≈ 0.913 µM)
- MIC [2]: 0.25 µg/mL (≈ 0.456 µM)
- MIC [3]: 0.1 µg/mL (≈ 0.183 µM)
- MIC [4]: 2.5 µg/mL (≈ 4.56 µM)
- MIC [5]: 80 µg/mL (≈ 146 µM)
- MIC [6]: > 80 µg/mL
- MIC [7]: > 80 µg/mL
- MIC [8]: > 80 µg/mL
- MIC [9]: > 80 µg/mL
- MIC [10]: 10 µg/mL (≈ 18.3 µM)
- MIC [11]: 80 µg/mL (≈ 146 µM)
- MIC [12]: 20 µg/mL (≈ 36.5 µM)
- MIC ([13]; Past. multocida PA2, Diagnostic Sensitivity Test Agar, 18 hours 37° C., read-out: M.I.C.): 5 µg/mL (≈ 9.13 µM)
- MIC [14]: > 80 µg/mL
- MIC [15]: > 80 µg/mL
- MIC [16]: 5 µg/mL (≈ 9.13 µM)
- MIC [17]: 10 µg/mL (≈ 18.3 µM)
- MIC [18]: 5 µg/mL (≈ 9.13 µM)
- MIC [19]: 2.5 µg/mL (≈ 4.56 µM)
- MIC [20]: 0.625 µg/mL (≈ 1.14 µM)
- MIC [21]: 10 µg/mL (≈ 18.3 µM)
- MIC [22]: 0.625 µg/mL (≈ 1.14 µM)
- MIC [31]: 1 µg/mL (≈ 1.83 µM)
- MIC [24]: > 100 µg/mL
- MIC [25]: 1 µg/mL (≈ 1.83 µM)
- MIC [26]: > 100 µg/mL
- MIC [28]: 2.5 µg/mL (≈ 4.56 µM)
- MIC [29]: > 100 µg/mL
- fraction unbound [30]: < 0.159
